Reference: patent US11365199B2, “Pyrazole compounds as modulators of FSHR and uses thereof” (Merck Patent GmbH, priority 2013, dated 2022)

Tests used:
[1] = molecular target: T1, follicle-stimulating hormone (FSH) receptor (Rattus norvegicus, UniProt P20395); experiment: Rat granulosa EC50 FSH (Assay B); type: cell-based; conditions: rat granulosa cells; read-out: Assay B: Rat granulosa EC50 FSH
T1 construct: endogenous in cells; host or cells: primary rat granulosa cells
T1 sequence (P20395 18-692): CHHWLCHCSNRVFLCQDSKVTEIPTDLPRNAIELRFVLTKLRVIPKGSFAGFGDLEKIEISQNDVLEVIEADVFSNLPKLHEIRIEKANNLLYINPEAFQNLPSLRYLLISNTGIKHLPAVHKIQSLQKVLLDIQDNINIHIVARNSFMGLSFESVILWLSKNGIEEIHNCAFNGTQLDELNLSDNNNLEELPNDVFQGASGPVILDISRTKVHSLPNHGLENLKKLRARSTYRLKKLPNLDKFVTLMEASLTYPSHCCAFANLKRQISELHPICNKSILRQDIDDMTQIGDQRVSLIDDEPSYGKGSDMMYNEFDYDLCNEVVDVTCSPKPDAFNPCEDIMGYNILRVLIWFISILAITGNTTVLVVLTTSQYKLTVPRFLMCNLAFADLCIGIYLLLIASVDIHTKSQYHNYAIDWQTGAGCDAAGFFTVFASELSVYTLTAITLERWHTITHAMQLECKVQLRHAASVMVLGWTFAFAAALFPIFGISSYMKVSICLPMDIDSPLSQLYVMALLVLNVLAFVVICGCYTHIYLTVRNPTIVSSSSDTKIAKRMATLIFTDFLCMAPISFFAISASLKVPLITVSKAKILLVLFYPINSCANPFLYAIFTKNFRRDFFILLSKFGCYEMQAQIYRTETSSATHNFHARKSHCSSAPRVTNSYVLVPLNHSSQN
Description: Rat Granulosa EC50 FSH (Assay B)
The assay was performed pursuant to the teaching of Yanofsky et al. (2006) Allosteric activation of the follicle-stimulating hormone (FSH) receptor by selective, nonpeptide agonists (JBC 281(19): 13226-13233, which is incorporated by reference in the disclosure of the invention).

FSHR = molecular target: T2, FSHR (Homo sapiens, UniProt P23945); experiment: EC50 of cyclic AMP production in CHO FSHR cells + EC20 FSH (Assay A); type: cell-based; conditions: CHO FSHR cells + EC20 FSH, cAMP HTRF; read-out: Assay A: EC50 of cyclic AMP production
T2 construct: expressed in transfected cells; host or cells: CHO (Cho-FSHR-LUC-1-1-43)
T2 sequence (P23945 18-695): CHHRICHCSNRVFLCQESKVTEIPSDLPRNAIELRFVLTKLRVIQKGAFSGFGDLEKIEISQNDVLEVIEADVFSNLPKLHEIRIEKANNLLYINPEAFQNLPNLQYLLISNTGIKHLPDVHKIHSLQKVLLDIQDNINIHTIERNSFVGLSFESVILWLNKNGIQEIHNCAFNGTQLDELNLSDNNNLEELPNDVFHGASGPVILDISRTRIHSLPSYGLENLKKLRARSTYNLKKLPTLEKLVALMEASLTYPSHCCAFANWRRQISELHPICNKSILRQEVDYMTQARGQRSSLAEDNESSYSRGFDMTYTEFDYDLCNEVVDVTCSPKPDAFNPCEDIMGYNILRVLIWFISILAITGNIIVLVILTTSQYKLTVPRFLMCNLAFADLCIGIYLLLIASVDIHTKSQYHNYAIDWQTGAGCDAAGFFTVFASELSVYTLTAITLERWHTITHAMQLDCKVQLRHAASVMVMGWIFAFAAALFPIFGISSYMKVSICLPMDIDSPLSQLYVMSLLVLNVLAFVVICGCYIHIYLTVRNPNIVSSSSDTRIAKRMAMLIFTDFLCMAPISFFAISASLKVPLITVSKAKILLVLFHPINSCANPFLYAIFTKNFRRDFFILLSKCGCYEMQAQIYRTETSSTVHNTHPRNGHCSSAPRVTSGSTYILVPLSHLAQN
Summary of the method: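 Cho-FSHR-LUC cells were exposed to compound dilution series with EC20 FSH ([…]) and 200 μM IBMX for 1 h at 37° C. cAMP was read by HTRF (665/620 nm ratio). Effects are percent of the maximal FSH standard response.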

Row | Compound | EC50 [1] [nM] | EC50 (FSHR) [nM]
1 | COc1cc2c(cc1C1CCCO1)-c1c(c(C(=O)N(C)C(C)(C)C)nn1-c1ccsc1)CO2 (centres unmarked) [Compound 201, 7-Methoxy-8-(tetrahydro-furan-2-yl)-1-thiophen-3-yl-1,4-dihydro-chromeno[4,3-c]pyrazole-3-carboxylic Acid tert-butyl-methyl-amide] | 1000 to 5000 | 100 to 1000
2 | COc1cc2c(cc1-c1cnn(CCN3CCOCC3)c1)-c1c(c(C(=O)N3CCOCC3(C)C)nn1-c1ccsc1)CO2 [Compound 202, (3,3-Dimethyl-morpholin-4-yl)-{7-methoxy-8-[1-(2-morpholin-4-yl-ethyl)-1H-pyrazol-4-yl]-1-thiophen-3-yl-1,4-dihydro-chromeno[4,3-c]pyrazol-3-yl}-methanone] | 100 to 1000 | 100 to 1000
3 | COCOCCn1cc(-c2cc3c(cc2OC)OCc2c(C(=O)N4CCOCC4(C)C)nn(-c4ccsc4)c2-3)cn1 [Compound 205, (3,3-Dimethyl-morpholin-4-yl)-{7-methoxy-8-[1-(2-methoxymethoxy-ethyl)-1H-pyrazol-4-yl]-1-thiophen-3-yl-1,4-dihydro-chromeno[4,3-c]pyrazol-3-yl}-methanone] | < 100 | < 100
4 | COCCCn1cc(-c2cc3c(cc2OC)OCc2c(C(=O)N4CCOCC4(C)C)nn(-c4ccsc4)c2-3)cn1 [Compound 208, (3,3-Dimethyl-morpholin-4-yl)-{7-methoxy-8-[1-(3-methoxy-propyl)-1H-pyrazol-4-yl]-1-thiophen-3-yl-1,4-dihydro-chromeno[4,3-c]pyrazol-3-yl}-methanone] | < 100 | < 100
5 | COc1cc2c(cc1-c1cnn(CC3OCCO3)c1)-c1c(c(C(=O)N3CCOCC3(C)C)nn1-c1ccsc1)CO2 [Compound 209, (3,3-Dimethyl-morpholin-4-yl)-[8-(1-[1,3]dioxolan-2-ylmethyl-1H-pyrazol-4-yl)-7-methoxy-1-thiophen-3-yl-1,4-dihydro-chromeno[4,3-c]pyrazol-3-yl]-methanone] | < 100 | < 100
6 | CCn1cc(-c2cc3c(cc2OC)OCc2c(C(=O)N4CCOCC4(C)C)nn(-c4ccsc4)c2-3)cn1 [Compound 210, (3,3-Dimethyl-morpholin-4-yl)-[8-(1-ethyl-1H-pyrazol-4-yl)-7-methoxy-1-thiophen-3-yl-1,4-dihydro-chromeno[4,3-c]pyrazol-3-yl]-methanone] | > 5000 | < 100
7 | CCCn1cc(-c2cc3c(cc2OC)OCc2c(C(=O)N4CCOCC4(C)C)nn(-c4ccsc4)c2-3)cn1 [Compound 211, (3,3-Dimethyl-morpholin-4-yl)-[7-methoxy-8-(1-propyl-1H-pyrazol-4-yl)-1-thiophen-3-yl-1,4-dihydro-chromeno[4,3-c]pyrazol-3-yl]-methanone] | < 100 | < 100
8 | [2H]C([2H])([2H])N(CCN1CCOC1=O)C(=O)c1nn(-c2ccsc2)c2c1COc1cc(OC)c(CC(C)C)cc1-2 [Compound 214] | 1000 to 5000 | < 100
9 | COc1cc2c(cc1-c1cnn(C3CC3)c1)-c1c(c(C(=O)N3CCOCC3(C)C)nn1-c1ccsc1)CO2 [Compound 215] | 100 to 1000 | < 100
10 | COc1cc2c(cc1-c1ccn(C)n1)-c1c(c(C(=O)N3CCOCC3C)nn1-c1ccsc1)CO2 (centres unmarked) [Compound 218] | 100 to 1000 | < 100
